One may read the inhibition as the percentage by which the read-out fell short of the control. One may read the IC50 as the midpoint of a concentration-inhibition curve. The low end stands for greater potency in that assay, the high end for weaker potency in that assay. As usually defined, the Km is the substrate concentration at which the rate is half of its maximum.

Read-outs that look alike come from different tables or passages of the source.

One series deals with T1, OCT3 (Homo sapiens, UniProt O75751).
T1 construct: expressed in transfected cells; host or cells: HEK293 (Flp-In)
T1 sequence (O75751 1-556): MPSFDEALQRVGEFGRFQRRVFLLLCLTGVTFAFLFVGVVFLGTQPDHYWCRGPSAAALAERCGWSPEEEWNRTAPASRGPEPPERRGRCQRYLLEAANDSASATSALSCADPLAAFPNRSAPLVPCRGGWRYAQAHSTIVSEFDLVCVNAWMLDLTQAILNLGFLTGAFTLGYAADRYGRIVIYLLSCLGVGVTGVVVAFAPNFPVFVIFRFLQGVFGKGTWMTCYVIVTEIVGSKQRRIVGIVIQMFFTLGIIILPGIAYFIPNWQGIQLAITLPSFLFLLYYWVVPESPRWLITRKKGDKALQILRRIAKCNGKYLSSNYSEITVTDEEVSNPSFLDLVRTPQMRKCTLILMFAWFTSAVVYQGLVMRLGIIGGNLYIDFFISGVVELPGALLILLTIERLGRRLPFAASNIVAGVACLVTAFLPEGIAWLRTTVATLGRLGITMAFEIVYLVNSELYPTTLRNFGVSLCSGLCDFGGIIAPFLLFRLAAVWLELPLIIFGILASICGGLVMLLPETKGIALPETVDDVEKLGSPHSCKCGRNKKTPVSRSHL
As to the kind of experiment: Ranitidine uptake in HEK293 cells overexpressing OCT3. The class given is in vitro ADME.

In the next series the target is T2, OCT2 (Homo sapiens, UniProt O15244, S270A).
T2 construct: expressed in transfected cells; host or cells: HEK293 T-REx (Flp-In)
T2 sequence (O15244 1-555 S270A): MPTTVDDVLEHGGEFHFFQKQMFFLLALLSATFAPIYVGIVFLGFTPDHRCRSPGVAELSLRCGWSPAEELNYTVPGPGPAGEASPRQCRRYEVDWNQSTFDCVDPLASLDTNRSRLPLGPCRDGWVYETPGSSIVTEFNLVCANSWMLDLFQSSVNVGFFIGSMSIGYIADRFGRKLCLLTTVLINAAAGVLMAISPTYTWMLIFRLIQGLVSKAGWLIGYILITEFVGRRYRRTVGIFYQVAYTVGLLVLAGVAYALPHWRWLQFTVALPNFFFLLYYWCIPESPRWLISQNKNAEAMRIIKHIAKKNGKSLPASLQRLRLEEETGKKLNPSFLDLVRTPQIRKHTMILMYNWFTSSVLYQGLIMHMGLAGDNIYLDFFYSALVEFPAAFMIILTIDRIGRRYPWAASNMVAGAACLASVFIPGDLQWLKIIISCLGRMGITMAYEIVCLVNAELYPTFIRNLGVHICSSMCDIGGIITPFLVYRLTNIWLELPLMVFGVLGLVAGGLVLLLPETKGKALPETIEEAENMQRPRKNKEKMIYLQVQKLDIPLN
As to the kind of experiment: Ranitidine uptake in HEK293 cells overexpressing OCT2 reference (Ala270). Format: in vitro ADME. The settings on record: 1 μM ranitidine, 2 min.

The next series deals with T3, OCT1*1 (Homo sapiens, UniProt O15245, L160F).
T3 construct: expressed in transfected cells; host or cells: HEK293 T-REx (Flp-In)
T3 sequence (O15245 1-554 L160F): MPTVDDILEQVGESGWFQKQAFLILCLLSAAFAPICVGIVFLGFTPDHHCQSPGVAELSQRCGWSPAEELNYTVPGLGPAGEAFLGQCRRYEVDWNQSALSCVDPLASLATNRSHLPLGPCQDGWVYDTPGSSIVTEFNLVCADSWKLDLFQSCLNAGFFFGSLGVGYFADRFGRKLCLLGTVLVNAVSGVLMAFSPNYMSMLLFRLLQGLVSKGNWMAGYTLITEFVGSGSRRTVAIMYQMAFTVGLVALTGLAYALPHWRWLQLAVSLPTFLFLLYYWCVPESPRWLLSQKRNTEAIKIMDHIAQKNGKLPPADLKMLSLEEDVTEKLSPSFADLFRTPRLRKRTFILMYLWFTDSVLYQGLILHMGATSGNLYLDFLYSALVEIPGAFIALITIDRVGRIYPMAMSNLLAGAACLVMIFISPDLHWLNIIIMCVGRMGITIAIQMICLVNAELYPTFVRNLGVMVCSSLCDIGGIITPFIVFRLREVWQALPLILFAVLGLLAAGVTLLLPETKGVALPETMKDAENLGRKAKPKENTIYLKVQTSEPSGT
As to the kind of experiment: Inhibition by ranitidine of OCT1-mediated substrate uptake, reference allele, HEK293 cells. Format: cell-based. The settings on record: for inhibition at 2 min: human, HEK293 cells overexpressing OCT1*1 (reference allele); for IC50: OCT1*1, 2 min, HEK293.

The nature of series [1]: Estimated ranitidine concentrations in portal vein and gastrointestinal tract. Set-up: species or system human. The settings on record: highest clinical dose (300 mg) in a volume of 250 ml.
Description: The concentrations were chosen to be representative for the maximal unbound plasma (Cmax) and the estimated maximal unbound portal vein concentration (Cmax port).
In series [2] the target is T4, OCT1*2 (Met420del) (Homo sapiens, UniProt O15245, DEL420-420/L160F).
T4 sequence (O15245 with tags, fused parts or gaps L160F/DEL420-420): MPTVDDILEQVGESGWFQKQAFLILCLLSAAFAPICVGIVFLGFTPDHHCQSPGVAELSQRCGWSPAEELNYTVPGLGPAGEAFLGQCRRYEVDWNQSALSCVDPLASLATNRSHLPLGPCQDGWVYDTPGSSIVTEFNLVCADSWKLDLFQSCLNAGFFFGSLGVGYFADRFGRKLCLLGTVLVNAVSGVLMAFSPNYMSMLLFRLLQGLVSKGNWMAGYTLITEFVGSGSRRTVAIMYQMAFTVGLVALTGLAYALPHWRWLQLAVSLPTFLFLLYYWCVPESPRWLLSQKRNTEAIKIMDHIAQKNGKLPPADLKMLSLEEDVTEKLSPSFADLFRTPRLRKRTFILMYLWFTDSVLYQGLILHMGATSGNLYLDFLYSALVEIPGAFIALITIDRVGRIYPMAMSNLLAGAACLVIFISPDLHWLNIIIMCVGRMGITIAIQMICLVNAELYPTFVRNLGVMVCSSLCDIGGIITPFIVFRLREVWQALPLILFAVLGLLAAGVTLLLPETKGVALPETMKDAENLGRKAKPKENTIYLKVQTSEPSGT
Description: (§1) HEK293 or CHO cells overexpressing the human OCT1 alleles *1A (characterized by the amino acid substitution Met408Val), *1B, *1C (Phe160Leu), *1D (Pro341Leu/Met408Val), *2 (Met420del), *3 (Arg61Cys), *4 (Gly401Ser), *5 (Gly465Arg/Met420del), *6 (Cys88Arg/Met420del), *7 (Ser14Phe), *8A (Arg488Met), *8B (Arg488Met/Met408Val), *9 (Pro117Leu), *10 (Ser189Leu), *11 (Ile449Thr), *12 (Ser29Leu), or *13 (Thr245Met), the human OCT2 reference and variant alleles (Ala270Ser), human OCT3, and the control cells (transfected with the empty pcDNA5 vector) were generated by targeted chromosomal integration using the Flp-In™ System (Life Technologies, Darmstadt, Germany).
(§2) Six hundred thousand HEK293 or CHO cells were plated per well in 12-well plates (pre-coated with poly-D-lysine) and were grown for 48 hours to reach confluence. Cells were kept at 37°C and 5% CO2 in DMEM (HEK293) or RPMI (CHO), supplemented with 10% FCS, 100 U/ml penicillin, and 100 μg/ml streptomycin. Uptake experiments were performed at pH 7.4 using HBSS supplemented with 10 mM HEPES buffer (herein referred to as HBSS+). […]
(§3) For all transport measurements, the intracellular amount of substrate was normalized to the total amount of protein of the sample as measured using the bicinchoninic acid assay [49].
(§4) For quantification of intracellular substrates, the cell debris were removed by centrifugation at 17,000 x g for 10 min. […]

In a further series the test system is OCT1. The settings on record: literature data; cited from earlier work.
Series [3] deals with T4, OCT1*2 (Met420del). As to the kind of experiment: Inhibition by ranitidine of OCT1-mediated substrate uptake, OCT1*2 allele, HEK293 cells. The class given is cell-based. Set-up: expressed in transfected cells; host or cells: HEK293 T-REx (Flp-In).
Description: as §1
(§5) Cells were kept at 37°C and 5% CO2 in DMEM (HEK293) or RPMI (CHO), supplemented with 10% FCS, 100 U/ml penicillin, and 100 μg/ml streptomycin. Uptake experiments were performed at pH 7.4 using HBSS supplemented with 10 mM HEPES buffer (herein referred to as HBSS+). Cells were washed once with 1 ml pre-warmed HBSS+ buffer (37°C). […] Cells were washed twice with 2 ml ice-cold HBSS+ and lysed in 500 μl lysis buffer.
(§6) The intracellular concentration of MPP^+ was determined using liquid scintillation counting of radioactively labeled substrate. To this end, 400 μl cell lysate was measured with 9 ml Aquasafe Plus liquid scintillator using the Scintillation Counter LS6500 (Beckman Coulter, Krefeld, Germany). Intracellular ASP^+ concentrations were determined using fluorescence spectroscopy.
as §3
(§7) For quantification of intracellular substrates, the cell debris were removed by centrifugation at 17,000 x g for 10 min. Four-hundred μl of the supernatant was evaporated to dryness under nitrogen flow at 40°C. The residue was reconstituted in 200 μl 0.1% formic acid and 10 μl were injected into the LC-MS/MS. For the LC-MS/MS analysis an API 4000™ system tandem mass spectrometer (AB SCIEX, Darmstadt, Germany) was used. Samples were separated using a Brownlee SPP RP-Amide Column (4.6x100 mm, 2.7 μm; PerkinElmer), with a SecurityGuard C18, 4x2 mm pre-column (Phenomenex, Aschaffenburg, Germany).
(§8) Nonlinear regression to the Michaelis-Menten equation was performed to determine Km and vmax using GraphPad Prism version 6 (GraphPad Software Inc., La Jolla, CA, USA). Nonlinear regression to the Hill equation v = vmin+(vmax-vmin)/1+([I]/IC50)^-Hillslope was performed to determine IC50 using SigmaPlot version 12.0 (Systat Software, San Jose, California, USA).

Description for OCT1*1: as §1, §5, §6, §3, §7, §8
Description for OCT2: as §1, §2, §3, §4
Description for OCT3: as §1, §2, §3, §4

Take `CNC(=C[N+](=O)[O-])NCCSCc1ccc(CN(C)C)o1` [ranitidine, Ranitidine]: the “increase in ranitidine uptake, OCT3-overexpressing cells compared to the controls” value at OCT3 (HEK293, 10-600 μM ranitidine, 2 min) is reported as “up to 2 fold”. For the same compound, at OCT3 (at clinically relevant concentrations), the “OCT3-mediated uptake lower than the OCT1-mediated uptake of ranitidine” value is on record as “more than 14 fold”. The “ranitidine uptake, OCT2-overexpressing compared to control cells” value at OCT2 is recorded as 3.3 fold. Also, the “induction of morphine uptake” value on OCT1*1 (at Cmax of ranitidine, reference allele only, not in OCT1*2) was 41%. For the same compound, the inhibition at 2 min on OCT1*1 (pH 7.4, probe metformin (100 μM), read-out: inhibition of metformin uptake) was 50%; on OCT1*1 (pH 7.4, high concentrations expected in the gastrointestinal tract, all substrates tested, reference allele, read-out: inhibition of substrate uptake), more than 70%; at OCT1*2 (Met420del) [3] (human, HEK293 cells overexpressing OCT1*2 (Met420del), pH 7.4, probe metformin (100 μM), read-out: inhibition of metformin uptake) it was 50%; at OCT1*2 (Met420del) [3] (human, HEK293 cells overexpressing OCT1*2 (Met420del), pH 7.4, probe morphine (0.1 μM), read-out: inhibition of morphine uptake), not above 30%; at OCT1*2 (Met420del) [3] (human, HEK293 cells overexpressing OCT1*2 (Met420del), pH 7.4, high concentrations expected in the gastrointestinal tract, all substrates tested, OCT1*2, read-out: inhibition of substrate uptake), more than 70%. Further, the IC50 amounted to 81.9 µM at OCT1*1 (substrate 0.1 μM MPP+); 45.5 ± 5.49 µM against OCT1*1 (substrate 0.1 μM morphine); 337 µM against OCT1*1 (substrate 1 μM ASP+); 20.9 µM on OCT1*1 (substrate 100 μM metformin); 34.4 µM against OCT1*2 (Met420del) [3] (substrate 0.1 μM MPP+, OCT1*2, 2 min, HEK293); 19.5 µM at OCT1*2 (Met420del) [3] (substrate 0.1 μM morphine, OCT1*2, 2 min, HEK293). In addition, half-maximal inhibition at OCT1*2 (Met420del) [3] (substrate 1 μM ASP+, OCT1*2, 2 min, HEK293) (IC50) required 155 µM. For the same compound, the “[I]2, theoretical maximal gastrointestinal ranitidine concentration after oral administration” value in series [1] was 3800 µM. Moreover, the “decrease of vmax compared to the reference allele” value on OCT1*2 (Met420del) [2] (OCT1*2) was “more than 50%”. Moreover, the “Vmax (±SEM)” value on OCT1*2 (Met420del) [2] (OCT1*2 Met420del, HEK293, 10-600 μM ranitidine, 2 min) is recorded as 402.04 (±51.24) pmol x min^-1 x mg protein^-1. The Km with OCT1 was 70 ± 9 µM. This compound also yielded an IC50 at 2 min against OCT1*2 (Met420del) [3] (human, HEK293 cells overexpressing OCT1*2 (Met420del), pH 7.4, probe metformin (100 μM), substrate 100 μM metformin, OCT1*2, 2 min, HEK293) of 14.8 µM.

The record behind these values is PMC5728534 (PLoS ONE, 2017).
